# From patent publication US11614434B2, “Genetic information analysis platform oncobox” (Obschestvo s ogranichennoi otvetstvennostyu “Oncobox”, priority 2018, dated 2023)
# System: moderately differentiated intrahepatic cholangiocarcinoma
# Experiment: Clinical case: treatment of a patient with metastatic intrahepatic cholangiocarcinoma, drugs chosen by Oncobox rating
# Format: in vivo, human
# Source text: The patient was diagnosed in October 2015 with the following symptoms: moderate body weight loss, pain in right hypochondrium, loss of appetite and asthenia, with 70% Karnovsky index. […] The tumour was not surgically excised due to advanced stage, several intrahepatic masses and lung metastasis.
# At first, total RNA was isolated from tumour sample and used to measure expression levels for 2,163 genes with CustomArray Inc. (USA) equipment using the microarray hybridization method. These 2,163 genes participate in major human signalling pathways associated with cancer, and also act as the molecular targets of anti-cancer medicinal products. Liver samples without pathological characteristics were taken from healthy donors and used as normal tissue controls. Using the Oncobox algorithm, the rating of target drugs was formed according to the BES values obtained (Table 2).
structure (smiles),measurement,setting,value
CNC(=O)c1cc(Oc2ccc(NC(=O)Nc3ccc(Cl)c(C(F)(F)F)c3)cc2)ccn1 [Sorafenib],tumour status on MRI according to RECIST classification,"Sorafenib from May 2016, MRI October 2016",stable disease
same,period till progression,"Sorafenib from May 2016, progressing tumour on MRI January 2017",about 6 months
same,symptom change after treatment,after treatment with Sorafenib,pain elimination in right hypochondrium
same,adverse effects,patient on Sorafenib,"reddening, edema, pains in palms of the hands and bottoms of the feet"
